Source: ChEMBL document CHEMBL5131399, “Broadening antifungal spectrum and improving metabolic stablity based on a scaffold strategy: Design, synthesis, and evaluation of novel 4-phenyl-4,5-dihydrooxazole derivatives as potent fungistatic and fungicidal reagents” (Eur J Med Chem, 2022)
In brackets after ≈: the same amount, converted by molar mass.

Assays:
Format in all cases: functional
Cryptococcus neoformans = assay: Antifungal activity against Cryptococcus neoformans CGMCC 2.3161 assessed as fungal growth inhibition by NCCLS protocol based method
Pichia kudriavzevii = assay: Antifungal activity against Candida krusei GIM2.1 assessed as fungal growth inhibition by NCCLS protocol based method
Aspergillus fumigatus = assay: Antifungal activity against Aspergillus fumigatus CGMCC3.7795 assessed as fungal growth inhibition by NCCLS protocol based method
Candida tropicalis = assay: Antifungal activity against Candida tropicalis CGMCC 2.3739 assessed as fungal growth inhibition by NCCLS protocol based method
Nakaseomyces glabratus = assay: Antifungal activity against Candida glabrata clinical isolate assessed as fungal growth inhibition by NCCLS protocol based method
Candida albicans [1] = assay: Antifungal activity against Candida albicans ATCC SC5314 assessed as fungal growth inhibition by NCCLS protocol based method
Candida albicans [2] = assay: Antifungal activity against Candida albicans CPCC400616 assessed as fungal growth inhibition by NCCLS protocol based method
Candida parapsilosis = assay: Antifungal activity against Candida parapsilosis GIM2.190 assessed as fungal growth inhibition by NCCLS protocol based method; settings: Lodderomyces parapsilosis
Candida albicans [3] = assay: Antifungal activity against FLC-resistant Candida albicans 901 assessed as fungal growth inhibition by NCCLS protocol based method
Candida albicans [4] = assay: Antifungal activity against FLC-resistant Candida albicans CaR assessed as fungal growth inhibition by NCCLS protocol based method
Candida albicans [5] = assay: Antifungal activity against FLC-resistant Candida albicans 311 assessed as fungal growth inhibition by NCCLS protocol based method
Candida albicans [6] = assay: Antifungal activity against FLC-resistant Candida albicans 100 assessed as fungal growth inhibition by NCCLS protocol based method
Candida albicans [7] = assay: Antifungal activity against FLC-resistant Candida albicans 904 assessed as fungal growth inhibition by NCCLS protocol based method
Candida albicans [8] = assay: Antifungal activity against FLC-resistant Candida albicans 632 assessed as fungal growth inhibition by NCCLS protocol based method
Candida albicans [9] = assay: Antifungal activity against FLC-resistant Candida albicans 103 assessed as fungal growth inhibition by NCCLS protocol based method

SMILES | MIC (Cryptococcus neoformans) | MIC (Pichia kudriavzevii) | MIC (Aspergillus fumigatus) | MIC (Candida tropicalis) | MIC (Nakaseomyces glabratus) | MIC (Candida albicans [1]) | MIC (Candida albicans [2]) | MIC (Candida parapsilosis) | MIC (Candida albicans [3]) | MIC (Candida albicans [4]) | MIC (Candida albicans [5]) | MIC (Candida albicans [6]) | MIC (Candida albicans [7]) | MIC (Candida albicans [8]) | MIC (Candida albicans [9])
Clc1cccc(C2(Cn3ccnc3)COC(c3ccc(-c4ccccc4)s3)=N2)c1 (configuration not stated) | 2 µg/mL (≈ 4.76 µM) | > 64 µg/mL | > 64 µg/mL | > 64 µg/mL | > 64 µg/mL | > 64 µg/mL | > 64 µg/mL | 4 µg/mL (≈ 9.53 µM) | – | – | – | – | – | – | –
N#Cc1ccc(-c2ccc(C3=NC(Cn4ccnc4)(c4ccc(F)cc4)CO3)s2)cc1 (configuration not stated) | > 64 µg/mL | > 64 µg/mL | 16 µg/mL (≈ 37.3 µM) | 16 µg/mL (≈ 37.3 µM) | > 64 µg/mL | 0.125 µg/mL (≈ 0.292 µM) | 1 µg/mL (≈ 2.33 µM) | > 64 µg/mL | – | – | – | – | – | – | –
Fc1cccc(C2(Cn3ccnc3)COC(c3ccc(-c4ccccc4)s3)=N2)c1 (configuration not stated) | > 64 µg/mL | > 64 µg/mL | > 64 µg/mL | 8 µg/mL (≈ 19.8 µM) | > 64 µg/mL | > 64 µg/mL | > 64 µg/mL | > 64 µg/mL | – | – | – | – | – | – | –
Fc1ccc(C2(Cn3ccnc3)COC(c3ccc(-c4cccc(OC(F)(F)F)c4)s3)=N2)cc1 (configuration not stated) | > 64 µg/mL | > 64 µg/mL | > 64 µg/mL | > 64 µg/mL | > 64 µg/mL | > 64 µg/mL | > 64 µg/mL | > 64 µg/mL | – | – | – | – | – | – | –
COc1cccc(C2(Cn3ccnc3)COC(c3ccc(-c4ccccc4)s3)=N2)c1 (configuration not stated) | > 64 µg/mL | > 64 µg/mL | > 64 µg/mL | 1 µg/mL (≈ 2.41 µM) | > 64 µg/mL | 0.125 µg/mL (≈ 0.301 µM) | 1 µg/mL (≈ 2.41 µM) | > 64 µg/mL | – | – | – | – | – | – | –
COc1cccc(-c2ccc(C3=NC(Cn4ccnc4)(c4ccc(F)cc4)CO3)s2)c1 (configuration not stated) | > 64 µg/mL | > 64 µg/mL | > 64 µg/mL | > 64 µg/mL | > 64 µg/mL | > 64 µg/mL | > 64 µg/mL | > 64 µg/mL | – | – | – | – | – | – | –
Fc1ccc(C2(Cn3ccnc3)COC(c3ccc(-c4ccc(OCC(F)(F)F)cc4)s3)=N2)cc1 (configuration not stated) | > 64 µg/mL | > 64 µg/mL | > 64 µg/mL | > 64 µg/mL | > 64 µg/mL | > 64 µg/mL | > 64 µg/mL | > 64 µg/mL | – | – | – | – | – | – | –
Fc1ccccc1C1(Cn2ccnc2)COC(c2ccc(-c3ccccc3)s2)=N1 (configuration not stated) | 0.5 µg/mL (≈ 1.24 µM) | 1 µg/mL (≈ 2.48 µM) | 8 µg/mL (≈ 19.8 µM) | 0.125 µg/mL (≈ 0.31 µM) | 0.25 µg/mL (≈ 0.62 µM) | 0.5 µg/mL (≈ 1.24 µM) | 0.125 µg/mL (≈ 0.31 µM) | 0.25 µg/mL (≈ 0.62 µM) | 1 µg/mL (≈ 2.48 µM) | 0.125 µg/mL (≈ 0.31 µM) | 0.25 µg/mL (≈ 0.62 µM) | 0.125 µg/mL (≈ 0.31 µM) | 1 µg/mL (≈ 2.48 µM) | 1 µg/mL (≈ 2.48 µM) | 0.25 µg/mL (≈ 0.62 µM)
Clc1ccc(C2(Cn3ccnc3)COC(c3ccc(-c4ccccc4)s3)=N2)cc1 (configuration not stated) | 0.5 µg/mL (≈ 1.19 µM) | 16 µg/mL (≈ 38.1 µM) | 8 µg/mL (≈ 19.1 µM) | 0.125 µg/mL (≈ 0.298 µM) | 16 µg/mL (≈ 38.1 µM) | 0.25 µg/mL (≈ 0.595 µM) | 0.25 µg/mL (≈ 0.595 µM) | 2 µg/mL (≈ 4.76 µM) | 0.5 µg/mL (≈ 1.19 µM) | 1 µg/mL (≈ 2.38 µM) | 4 µg/mL (≈ 9.53 µM) | 4 µg/mL (≈ 9.53 µM) | 2 µg/mL (≈ 4.76 µM) | 1 µg/mL (≈ 2.38 µM) | 4 µg/mL (≈ 9.53 µM)
CCc1ccc(-c2ccc(C3=NC(Cn4ccnc4)(c4ccc(F)cc4)CO3)s2)cc1 (configuration not stated) | > 64 µg/mL | > 64 µg/mL | 4 µg/mL (≈ 9.27 µM) | > 64 µg/mL | 64 µg/mL (≈ 148 µM) | 4 µg/mL (≈ 9.27 µM) | 4 µg/mL (≈ 9.27 µM) | 16 µg/mL (≈ 37.1 µM) | – | – | – | – | – | – | –
COc1ccc(-c2ccc(C3=NC(Cn4ccnc4)(c4ccc(F)cc4)CO3)s2)cc1 (configuration not stated) | > 64 µg/mL | > 64 µg/mL | > 64 µg/mL | > 64 µg/mL | > 64 µg/mL | > 64 µg/mL | > 64 µg/mL | > 64 µg/mL | – | – | – | – | – | – | –
Fc1ccc(C2(Cn3ccnc3)COC(c3ccc(-c4ccccc4Cl)s3)=N2)cc1 (configuration not stated) | > 64 µg/mL | > 64 µg/mL | 16 µg/mL (≈ 36.5 µM) | > 64 µg/mL | > 64 µg/mL | 0.5 µg/mL (≈ 1.14 µM) | 0.25 µg/mL (≈ 0.571 µM) | > 64 µg/mL | – | – | – | – | – | – | –
Fc1ccc(C2(Cn3ccnc3)COC(c3ccc(-c4ccc(C(F)(F)F)cc4)s3)=N2)cc1 (configuration not stated) | > 64 µg/mL | > 64 µg/mL | > 64 µg/mL | > 64 µg/mL | > 64 µg/mL | > 64 µg/mL | > 64 µg/mL | > 64 µg/mL | – | – | – | – | – | – | –
CCc1ccccc1-c1ccc(C2=NC(Cn3ccnc3)(c3ccc(F)cc3)CO2)s1 (configuration not stated) | > 64 µg/mL | > 64 µg/mL | > 64 µg/mL | > 64 µg/mL | > 64 µg/mL | > 64 µg/mL | > 64 µg/mL | > 64 µg/mL | – | – | – | – | – | – | –
Cc1cccc(C2(Cn3ccnc3)COC(c3ccc(-c4ccccc4)s3)=N2)c1 (configuration not stated) | 0.5 µg/mL (≈ 1.25 µM) | > 64 µg/mL | > 64 µg/mL | 4 µg/mL (≈ 10 µM) | > 64 µg/mL | 0.125 µg/mL (≈ 0.313 µM) | 2 µg/mL (≈ 5.01 µM) | > 64 µg/mL | 8 µg/mL (≈ 20 µM) | 8 µg/mL (≈ 20 µM) | 4 µg/mL (≈ 10 µM) | 0.5 µg/mL (≈ 1.25 µM) | 4 µg/mL (≈ 10 µM) | 4 µg/mL (≈ 10 µM) | 4 µg/mL (≈ 10 µM)
CCOc1ccc(-c2ccc(C3=NC(Cn4ccnc4)(c4ccc(F)cc4)CO3)s2)cc1 (configuration not stated) | > 64 µg/mL | > 64 µg/mL | 8 µg/mL (≈ 17.9 µM) | 1 µg/mL (≈ 2.23 µM) | 32 µg/mL (≈ 71.5 µM) | 0.5 µg/mL (≈ 1.12 µM) | 2 µg/mL (≈ 4.47 µM) | > 64 µg/mL | – | – | – | – | – | – | –
Cc1cccc(-c2ccc(C3=NC(Cn4ccnc4)(c4ccc(F)cc4)CO3)s2)c1 (configuration not stated) | 16 µg/mL (≈ 38.3 µM) | > 64 µg/mL | 32 µg/mL (≈ 76.6 µM) | 4 µg/mL (≈ 9.58 µM) | > 64 µg/mL | 0.5 µg/mL (≈ 1.2 µM) | 0.25 µg/mL (≈ 0.599 µM) | 16 µg/mL (≈ 38.3 µM) | – | – | – | – | – | – | –
Fc1ccc(C2(Cn3ccnc3)COC(c3ccc(-c4ccc(Cl)cc4)s3)=N2)cc1 (configuration not stated) | > 64 µg/mL | 8 µg/mL (≈ 18.3 µM) | 8 µg/mL (≈ 18.3 µM) | 4 µg/mL (≈ 9.13 µM) | > 64 µg/mL | 8 µg/mL (≈ 18.3 µM) | 2 µg/mL (≈ 4.57 µM) | > 64 µg/mL | – | – | – | – | – | – | –
Cc1ccc(C2(Cn3ccnc3)COC(c3ccc(-c4ccccc4)s3)=N2)cc1 (configuration not stated) | 0.25 µg/mL (≈ 0.626 µM) | > 64 µg/mL | 16 µg/mL (≈ 40 µM) | 8 µg/mL (≈ 20 µM) | > 64 µg/mL | 0.125 µg/mL (≈ 0.313 µM) | 0.125 µg/mL (≈ 0.313 µM) | 1 µg/mL (≈ 2.5 µM) | 2 µg/mL (≈ 5.01 µM) | 2 µg/mL (≈ 5.01 µM) | 8 µg/mL (≈ 20 µM) | 0.5 µg/mL (≈ 1.25 µM) | 4 µg/mL (≈ 10 µM) | 16 µg/mL (≈ 40 µM) | 4 µg/mL (≈ 10 µM)
N#Cc1cccc(-c2ccc(C3=NC(Cn4ccnc4)(c4ccc(F)cc4)CO3)s2)c1 (configuration not stated) | 2 µg/mL (≈ 4.67 µM) | > 64 µg/mL | 16 µg/mL (≈ 37.3 µM) | 1 µg/mL (≈ 2.33 µM) | > 64 µg/mL | 0.5 µg/mL (≈ 1.17 µM) | 0.5 µg/mL (≈ 1.17 µM) | > 64 µg/mL | – | – | – | – | – | – | –
Fc1ccc(-c2ccc(C3=NC(Cn4ccnc4)(c4ccc(F)cc4)CO3)s2)cc1 (configuration not stated) | 8 µg/mL (≈ 19 µM) | 16 µg/mL (≈ 38 µM) | 8 µg/mL (≈ 19 µM) | 0.5 µg/mL (≈ 1.19 µM) | > 64 µg/mL | 2 µg/mL (≈ 4.75 µM) | 1 µg/mL (≈ 2.37 µM) | > 64 µg/mL | – | – | – | – | – | – | –
FC(F)(F)c1ccc(C2(Cn3ccnc3)COC(c3ccc(-c4ccccc4)s3)=N2)cc1 (configuration not stated) | > 64 µg/mL | > 64 µg/mL | > 64 µg/mL | > 64 µg/mL | > 64 µg/mL | 0.125 µg/mL (≈ 0.276 µM) | 0.5 µg/mL (≈ 1.1 µM) | > 64 µg/mL | – | – | – | – | – | – | –
CC(C)c1ccccc1-c1ccc(C2=NC(Cn3ccnc3)(c3ccc(F)cc3)CO2)s1 (configuration not stated) | > 64 µg/mL | > 64 µg/mL | > 64 µg/mL | > 64 µg/mL | > 64 µg/mL | > 64 µg/mL | > 64 µg/mL | > 64 µg/mL | – | – | – | – | – | – | –
